These molecules were tested on HBV (assay: HBV inhibition assay in HepAD38 cells (extracellular HBV DNA by direct qPCR)). Settings: Hepatitis B virus, 8-point dose-response curve, 96 hours, read-out: HBV inh EC50.
Format: cell-based
Text: HepAD38 cell line (Ladner et al., Antimicrob Agents Chemother, 1997, 41, 1715-20) was used for HBV inhibition assays. HepAD38 is a subclone, derived from Hepatoblastoma cell line HepG2 (ATCC® Number: HB-8065™), that expresses HBV genome under the control of a tetracycline-responsive promoter in a TET-OFF system: addition of tetracycline suppresses HBV replication, while its removal switches on the process allowing HBV viral particles release in the cell supernatant. HepAD38 cell line is maintained in DMEM/F12, supplemented with 10% of fetal bovine serum, 1% of glutamine, 1% of penicillin/streptomycin, 0.4 mg/ml G418 and 0,3 ug/ml tetracycline. For the HBV inhibition assay, doxycycline-free medium is used in order to allow virion production.
HBV inhibition activity in vitro was performed in 96 multiwell plates. During the initial (primary) screening compounds were first tested in triplicates at concentrations of 0.1µM, 0.5µM amd 1µM. For selected compounds, an 8-point dose-response curve can be obtained using 1:2 serial dilutions (starting from 2.5 µM, 1.25µM or 0.4 µM, depending on the degree of inhibition observed during the primary screening). From the dose-response curves, half maximal effective concentration (EC50) can be calculated (see also below).
In more detail, compounds - typically dissolved in DMSO stock solutions - are diluted to 2x the final desired concentration in 100 µl of the above medium (without doxycycline) and plated in three replicates in the 96-well plates.
Simultaneously, HepAD38 cells - extensively pre-washed in tetracycline-free medium in order to induce HBV production - are suspended at 2*10^4 cells in 100 µl of tetracycline-free medium and added to each well of the plate, to yield a final assay volume of 200 µl DMSO - used for stock solutions and compounds dilutions - which is always present in the assays at a final concentration of 0.5%.
Plates are then incubated 96 hours at 37°C and then subjected to cell viability assay in order to define compounds cytotoxicity and to extracellular HBV quantification in order to evaluate antiviral activity of compounds. Cytotoxicity is assessed by a commercial fluorescence assay that measures the metabolic activity of cells, directly related to cell viability (Cell Titer Blue, Promega). Anti-HBV activity was evaluated by quantification of extracellular HBV DNA with direct qPCR. In particular, supernatant was collected and centrifuged for cell debris clarification, viral DNA was extracted from virions by addition of lysis buffer (1 mM 1,4-dithiothreitol, 0.2% sodium dodecyl sulphate) and incubated at 95°C for 10 min. Samples were then diluted 1:40 and real time PCR amplification was performed with SYBR green assay (Power SYBR™ Green PCR Master Mix-Thermo Fisher Scientific) and specific HBV primer (HBV-DF:5'-[…]-3' (SEQ ID No. 1), HBV-DR:5'-[…]-3' (SEQ ID No. 2)).
All HBV inhibition or antiviral activity data are typically reported in percent (%) relative to a non-treated reference sample. Excel and Graphpad Prism programs are typically used for data elaboration and EC50 calculation.
With `O=C(Nc1cc(F)c(F)c(F)c1)c1cc2c(cc1F)NCNS2(=O)=O` [Example E71, 6-fluoro-N-(3,4,5-trifluorophenyl)-3,4-dihydro-2H-benzo[e][1,2,4]thiadiazine-7-carboxamide 1,1-dioxide] the EC50 was < 1000 nM. In the case of `O=C(Nc1cc(F)c(F)c(F)c1)c1cc(F)c2c(c1)S(=O)(=O)NCN2` [Example E72, 5-fluoro-N-(3,4,5-trifluorophenyl)-3,4-dihydro-2H-benzo[e][1,2,4]thiadiazine-7-carboxamide 1,1-dioxide], the EC50 is reported as > 1000 nM.

Same assay, conditions: Hepatitis B virus, compound at 0.5 µM, 96 hours, relative to non-treated reference, read-out: Anti HBV Activity (conc µM)
For `O=C(Nc1cc(F)c(F)c(F)c1)c1ccc2c(c1)S(=O)(=O)NC(c1ncccn1)N2` (centres unmarked) [Example E54, 3-(pyrimidin-2-yl)-N-(3,4,5-trifluorophenyl)-3,4-dihydro-2H-benzo[e][1,2,4]thiadiazine-7-carboxamide 1,1-dioxide], the inhibition at 0.5 µM was > 50%. `CC1(c2cnccn2)Nc2ccc(C(=O)Nc3cc(F)c(F)c(F)c3)cc2S(=O)(=O)N1` (centres unmarked) [Example E55, 3-methyl-3-(pyrazin-2-yl)-N-(3,4,5-trifluorophenyl)-3,4-dihydro-2H-benzo[e][1,2,4]thiadiazine-7-carboxamide 1,1-dioxide] was tested, and the inhibition at 0.5 µM was > 50%. `O=C(Nc1cc(F)c(F)c(F)c1)c1ccc2c(c1)S(=O)(=O)NC1(N2)C(=O)Nc2ncccc21` (centres unmarked) [Example E57, 2'-oxo-N-(3,4,5-trifluorophenyl)-1',2'-dihydro-2H,4H-spiro[benzo[e][1,2,4]thiadiazine-3,3'-pyrrolo[2,3-b]pyridine]-7-carboxamide 1,1-dioxide] was tested, and the inhibition at 0.5 µM was > 50%. With `O=C(Nc1cc(F)c(F)c(F)c1)c1ccc2c(c1)S(=O)(=O)N([C@H]1CC[C@H](O)CC1)CN2` [Example E58, trans-2-(4-hydroxycyclohexyl)-N-(3,4,5-trifluorophenyl)-3,4-dihydro-2H-benzo[e][1,2,4]thiadiazine-7-carboxamide 1,1-dioxide] the inhibition at 0.5 µM was < 50%. In the case of `O=C(Nc1cc(F)c(F)c(F)c1)c1ccc2c(c1)S(=O)(=O)N([C@H]1CC[C@@H](O)CC1)CN2` [Example E59, cis-2-(4-hydroxycyclohexyl)-N-(3,4,5-trifluorophenyl)-3,4-dihydro-2H-benzo[e][1,2,4]thiadiazine-7-carboxamide 1,1-dioxide], the inhibition at 0.5 µM is reported as < 50%. For `O=C(Nc1cc(F)c(F)c(F)c1)c1ccc2c(c1)S(=O)(=O)N(C1CC1)CN2` [Example E60, 2-cyclopropyl-N-(3,4,5-trifluorophenyl)-3,4-dihydro-2H-benzo[e][1,2,4]thiadiazine-7-carboxamide 1,1-dioxide], the inhibition at 0.5 µM was < 50%. `O=C(Nc1cc(F)c(F)c(F)c1)c1ccc2c(c1)S(=O)(=O)N(C1CCNCC1)CN2` [Example E61, 2-(piperidin-4-yl)-N-(3,4,5-trifluorophenyl)-3,4-dihydro-2H-benzo[e][1,2,4]thiadiazine-7-carboxamide 1,1-dioxide] was tested, and the inhibition at 0.5 µM was < 50%. With `O=C(Nc1cc(F)c(F)c(F)c1)c1ccc2c(c1)S(=O)(=O)N1CCCC1N2` (centres unmarked) [Example E64, N-(3,4,5-trifluorophenyl)-2,3,10,10a-tetrahydro-1H-benzo[e]pyrrolo[1,2-b][1,2,4]thiadiazine-7-carboxamide 5,5-dioxide] the inhibition at 0.5 µM was < 50%. With `O=C(Nc1ccc(F)c(Cl)c1)c1ccc2c(c1)S(=O)(=O)NCN2` [Example E65, N-(3-chloro-4-fluorophenyl)-3,4-dihydro-2H-benzo[e][1,2,4]thiadiazine-7-carboxamide 1,1-dioxide] the inhibition at 0.5 µM was > 50%. In the case of `C[C@@H](N1C(=O)Nc2ccc(C(=O)Nc3cc(F)c(F)c(F)c3)cc2S1(=O)=O)C(F)(F)F` [Example E77, (R)-3-oxo-N-(3,4,5-trifluorophenyl)-2-(1,1,1-trifluoropropan-2-yl)-3,4-dihydro-2H-benzo[e][1,2,4]thiadiazine-7-carboxamide 1,1-dioxide], the inhibition at 0.5 µM is reported as < 50%.

Same assay, conditions: Hepatitis B virus, compound at 1 µM, 96 hours, relative to non-treated reference, read-out: Anti HBV Activity (conc µM)
In the case of `O=C(Nc1cc(F)c(F)c(F)c1)c1ccc2c(c1)S(=O)(=O)NC(c1cnc[nH]1)N2` (centres unmarked) [Example E51, 3-(1H-imidazol-5-yl)-N-(3,4,5-trifluorophenyl)-3,4-dihydro-2H-benzo[e][1,2,4]thiadiazine-7-carboxamide 1,1-dioxide], the inhibition at 1 µM is reported as < 50%. In the case of `O=C(Nc1cc(F)c(F)c(F)c1)c1ccc2c(c1)S(=O)(=O)NC(c1ccc(Cl)nc1)N2` (centres unmarked) [Example E52, 3-(6-chloropyridin-3-yl)-N-(3,4,5-trifluorophenyl)-3,4-dihydro-2H-benzo[e][1,2,4]thiadiazine-7-carboxamide 1,1-dioxide], the inhibition at 1 µM is reported as > 50%. `CC1(c2ccc(Cl)cn2)Nc2ccc(C(=O)Nc3cc(F)c(F)c(F)c3)cc2S(=O)(=O)N1` (centres unmarked) [Example E53, 3-(5-chloropyridin-2-yl)-3-methyl-N-(3,4,5-trifluorophenyl)-3,4-dihydro-2H-benzo[e][1,2,4]thiadiazine-7-carboxamide 1,1-dioxide] was tested, and the inhibition at 1 µM was > 50%. In the case of `O=C(Nc1cc(F)c(F)c(F)c1)c1ccc2c(c1)S(=O)(=O)N(CCO)CN2` [Example E62, 2-(2-hydroxyethyl)-N-(3,4,5-trifluorophenyl)-3,4-dihydro-2H-benzo[e][1,2,4]thiadiazine-7-carboxamide 1,1-dioxide], the inhibition at 1 µM is reported as < 50%. In the case of `CC1Nc2ccc(C(=O)Nc3cc(F)c(F)c(F)c3)cc2S(=O)(=O)N1CCO` (centres unmarked) [Example E63, 2-(2-hydroxyethyl)-3-methyl-N-(3,4,5-trifluorophenyl)-3,4-dihydro-2H-benzo[e][1,2,4]thiadiazine-7-carboxamide 1,1-dioxide], the inhibition at 1 µM is reported as < 50%. In the case of `O=C(Nc1ccc(F)c(F)c1)c1ccc2c(c1)S(=O)(=O)NC=N2` [Example E66, N-(3,4-difluorophenyl)-2H-benzo[e][1,2,4]thiadiazine-7-carboxamide 1,1-dioxide], the inhibition at 1 µM is reported as < 50%. With `CC1=Nc2ccc(C(=O)Nc3ccc(F)c(F)c3)cc2S(=O)(=O)N1` [Example E67, N-(3,4-difluorophenyl)-3-methyl-2H-benzo[e][1,2,4]thiadiazine-7-carboxamide 1,1-dioxide] the inhibition at 1 µM was < 50%. With `O=C(Nc1cc(F)c(F)c(F)c1)c1cc2c(cc1F)N=CNS2(=O)=O` [Example E68, 6-fluoro-N-(3,4,5-trifluorophenyl)-2H-benzo[e][1,2,4]thiadiazine-7-carboxamide 1,1-dioxide] the inhibition at 1 µM was < 50%. For `NC1=Nc2ccc(C(=O)Nc3cc(F)c(F)c(F)c3)cc2S(=O)(=O)N1` [Example E69, 3-amino-N-(3,4,5-trifluorophenyl)-2H-benzo[e][1,2,4]thiadiazine-7-carboxamide 1,1-dioxide], the inhibition at 1 µM was < 50%. With `CC(=O)NC1=Nc2ccc(C(=O)Nc3cc(F)c(F)c(F)c3)cc2S(=O)(=O)N1` [Example E70, 3-acetamido-N-(3,4,5-trifluorophenyl)-2H-benzo[e][1,2,4]thiadiazine-7-carboxamide 1,1-dioxide] the inhibition at 1 µM was < 50%. For `CN1C=NS(=O)(=O)c2cc(C(=O)Nc3cc(F)c(F)c(F)c3)c(F)cc21` [Example E73, 6-fluoro-4-methyl-N-(3,4,5-trifluorophenyl)-4H-benzo[e][1,2,4]thiadiazine-7-carboxamide 1,1-dioxide], the inhibition at 1 µM was < 50%. For `O=C1Nc2ccc(C(=O)Nc3ccc(F)c(F)c3)cc2S(=O)(=O)N1` [Example E74, N-(3,4-difluorophenyl)-3-oxo-3,4-dihydro-2H-benzo[e][1,2,4]thiadiazine-7-carboxamide 1,1-dioxide], the inhibition at 1 µM was < 50%. `O=C1Nc2ccc(C(=O)Nc3cc(F)c(F)c(F)c3)cc2S(=O)(=O)N1` [Example E75, 3-oxo-N-(3,4,5-trifluorophenyl)-3,4-dihydro-2H-benzo[e][1,2,4]thiadiazine-7-carboxamide 1,1-dioxide] was tested, and the inhibition at 1 µM was < 50%. With `CN1C(=O)Nc2ccc(C(=O)Nc3cc(F)c(F)c(F)c3)cc2S1(=O)=O` [Example E76, 2-methyl-3-oxo-N-(3,4,5-trifluorophenyl)-3,4-dihydro-2H-benzo[e][1,2,4]thiadiazine-7-carboxamide 1,1-dioxide] the inhibition at 1 µM was > 50%.

— patent publication EP3597653A1, “CYCLIC INHIBITORS OF HEPATITIS B VIRUS” (IRBM S.P.A., priority 2018, dated 2020)
